Measured values: patent publication US12331035B2, “Bicyclic compound and use thereof” (SK BIOPHARMACEUTICALS CO., LTD., priority 2019, dated 2025)

These compounds were tested against T1, PRMT5-MEP50 enzyme complex (Homo sapiens, UniProt O14744) (assay: In vitro PRMT5 enzyme activity assay (methylation of histone H4 arginine H4R3, ELISA absorbance at 450 nm)). Details: S-adenosylmethionine, histone H4 peptide, 2 hours at room temperature, 8 points 10 μM to 0.128 nM.
T1 construct: purchased BPS Bioscience (USA) 51045
Type: biochemical
Description: Method for Measuring Enzyme Activity
In vitro assay: PRMT5-MEP50 enzyme complex, cofactor S-adenosylmethionine (SAM) and histone H4 peptide were reacted in vitro, and methylation of arginine (H4R3) —which is the third amino acid of histone H4—was measured in order to measure the enzyme activity of PRMT5.
Reagents: PRMT5-MEP50 enzyme complex (Catalog No. 51045), blocking buffer (52100-B), histone methyltransferase reaction buffer 2 (4×HMT assay buffer 2, Catalog No. 52170), and primary antibody (primary antibody 4-3, Catalog No. 52150) were purchased from BPS Bioscience (USA). The histone H4 peptide (1-20 amino acids) was custom made by Komabiotech (Korea) and used. S-adenosylmethionine was purchased from NEB (New England Biolabs, USA, Catalog No. B9003S). Plates for coating histone H4 peptide, washing buffer and color development reagent were purchased from the following vendors: Plate (Immobilizer™-Amino Plate, NUNC, Denmark, Catalog No. 436023), carbonate-bicarbonate buffer (Sigma-Aldrich, USA, Catalog No. C3041), washing buffer (10×TBST, Biosesang, Korea, Catalog No. T2005), TMB ELISA substrate (Abcam, UK, Catalog No. ab210902), horseradish peroxidase (HRP)-conjugated antibody (Abcam, UK, Catalog No. ab6721).
Experimental procedure: The histone H4 peptide was diluted with carbonate-bicarbonate buffer and prepared to 100 μg/mL, and then dispensed onto the plate per 100 μL and reacted at 37° C. for 1 hour. PRMT5-MEP50 enzyme complex and S-adenosylmethionine were diluted with histone methyltransferase reaction buffer to prepare 5 μg/mL and 2 μM, respectively, and then 20 μL of PRMT5-MEP50 enzyme complex and 25 μL of S-adenosylmethionine were dispensed onto the plate prepared above. 5 μL of the compound diluted with 10% dimethyl sulfoxide solution was added thereto and reacted at room temperature for 2 hours (final volume=50 μL). The concentration of the compound was diluted 1:5 from 10 μM until the lowest concentration of 0.128 nM, and 8 points were used for the test. After preparing the primary antibody by diluting 1:2000 with blocking buffer, 100 μL was added to the plate and reacted at room temperature for 1 hour. After preparing horseradish peroxidase-conjugated antibody by diluting 1:10,000 with blocking buffer, 100 μL was added to the plate and reacted at room temperature for 1 hour. 100 μL of TMB substrate was added and reacted for 3 minutes at room temperature, and 100 μL of 1 N sulfuric acid was then added to terminate the reaction. Then, the absorbance at 450 nm was measured to calculate the IC50 value of the compound. (+++: 1 to 100 nM, ++: greater than 100 to 1,000 nM, +: greater than 1,000 to 10,000 nM)

T1 sequence (O14744 2-637 limits assumed): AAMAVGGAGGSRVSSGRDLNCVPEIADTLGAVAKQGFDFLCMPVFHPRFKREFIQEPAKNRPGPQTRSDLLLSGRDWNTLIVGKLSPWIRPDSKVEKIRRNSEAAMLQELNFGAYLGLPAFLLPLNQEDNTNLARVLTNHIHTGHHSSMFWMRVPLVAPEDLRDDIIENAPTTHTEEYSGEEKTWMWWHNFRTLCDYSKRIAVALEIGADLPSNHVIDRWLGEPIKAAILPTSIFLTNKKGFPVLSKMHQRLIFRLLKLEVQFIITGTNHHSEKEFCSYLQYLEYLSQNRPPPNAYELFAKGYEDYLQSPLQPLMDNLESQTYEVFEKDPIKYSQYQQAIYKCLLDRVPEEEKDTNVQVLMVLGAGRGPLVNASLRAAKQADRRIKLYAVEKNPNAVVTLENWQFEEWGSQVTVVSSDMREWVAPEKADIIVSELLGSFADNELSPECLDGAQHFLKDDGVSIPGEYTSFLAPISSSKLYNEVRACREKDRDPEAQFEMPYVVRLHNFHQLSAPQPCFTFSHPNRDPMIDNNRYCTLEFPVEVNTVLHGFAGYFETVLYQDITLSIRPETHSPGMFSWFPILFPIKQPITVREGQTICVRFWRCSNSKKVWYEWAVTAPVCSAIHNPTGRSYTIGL
T1 sequence (Q9BQA1 2-342 partner limits assumed): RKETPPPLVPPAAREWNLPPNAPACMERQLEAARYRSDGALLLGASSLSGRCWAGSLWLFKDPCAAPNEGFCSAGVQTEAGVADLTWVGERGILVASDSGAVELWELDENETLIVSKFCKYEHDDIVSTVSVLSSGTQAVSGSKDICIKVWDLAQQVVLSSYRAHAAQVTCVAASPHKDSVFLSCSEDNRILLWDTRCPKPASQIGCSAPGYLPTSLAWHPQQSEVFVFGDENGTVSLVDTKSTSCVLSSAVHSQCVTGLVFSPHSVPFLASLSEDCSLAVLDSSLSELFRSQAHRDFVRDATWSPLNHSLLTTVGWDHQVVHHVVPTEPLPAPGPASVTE

First: O=C1c2ccc(NCC3CCNCC3)cc2CCN1C[C@H](O)CN1CCc2ccccc2C1 [Example 31, 2-[(2R)-3-(3,4-dihydro-1H-isoquinolin-2-yl)-2-hydroxy-propyl]-6-(4-piperidylmethylamino)-3,4-dihydroisoquinolin-1-one]
Second: O=C1c2ccc(NC3CCNCC3)cc2CCN1C[C@H](O)CN1CCc2ccccc2C1 [Example 34, 2-[(2R)-3-(3,4-dihydro-1H-isoquinolin-2-yl)-2-hydroxy-propyl]-6-(4-piperidylamino)-3,4-dihydroisoquinolin-1-one]
The IC50 of the first is lower: 0.001 to 0.1 µM for the first, 1 to 10 µM for the second.

First: CC(=O)N1CCC(Nc2ccc3c(c2)CCN(C[C@H](O)CN2CCc4ccccc4C2)C3=O)CC1 [Example 32, 6-[(1-acetyl-4-piperidyl)amino]-2-[(2R)-3-(3,4-dihydro-1H-isoquinolin-2-yl)-2-hydroxy-propyl]-3,4-dihydroisoquinolin-1-one]
Second: CC(=O)N1CCN(c2ccc3c(c2)CCN(C[C@H](O)CN2CCc4ccccc4C2)C3=O)CC1 [Example 52, 6-(4-acetylpiperazin-1-yl)-2-[(2R)-3-(3,4-dihydro-1H-isoquinolin-2-yl)-2-hydroxy-propyl]-3,4-dihydroisoquinolin-1-one]
The IC50 of the first is lower: 0.001 to 0.1 µM for the first, 0.1 to 1 µM for the second.

First: O=C(CN1CCOCC1)Nc1ccc2c(c1)CCN(C[C@H](O)CN1CCc3ccccc3C1)C2=O [Example 33, N-[2-[(2R)-3-(3,4-dihydro-1H-isoquinolin-2-yl)-2-hydroxy-propyl]-1-oxo-3,4-dihydroisoquinolin-6-yl]-2-morpholino-acetamide]
Second: O=C1c2ccc(CN3CCOCC3)cc2CCN1C[C@H](O)CN1CCc2ccccc2C1 [Example 43, 2-[(2R)-3-(3,4-dihydro-1H-isoquinolin-2-yl)-2-hydroxy-propyl]-6-(morpholinomethyl)-3,4-dihydroisoquinolin-1-one]
The IC50 of the first is lower: 0.001 to 0.1 µM for the first, 1 to 10 µM for the second. The first is the more potent here.

`O=C1c2ccc(N3CCC(CO)CC3)cc2CCN1C[C@H](O)CN1CCc2ccccc2C1` [Example 35, 2-[(2R)-3-(3,4-dihydro-1H-isoquinolin-2-yl)-2-hydroxy-propyl]-6-[4-(hydroxymethyl)-1-piperidyl]-3,4-dihydroisoquinolin-1-one] and `O=C1c2ccc(N3CCC(O)CC3)cc2CCN1C[C@H](O)CN1CCc2ccccc2C1` [Example 37, 2-[(2R)-3-(3,4-dihydro-1H-isoquinolin-2-yl)-2-hydroxy-propyl]-6-(4-hydroxy-1-piperidyl)-3,4-dihydroisoquinolin-1-one] fall in the same range of IC50: 0.001 to 0.1 µM for the first, 0.001 to 0.1 µM for the second.

First: O=C1c2ccc(N3CCCC(CO)C3)cc2CCN1C[C@H](O)CN1CCc2ccccc2C1 (stereo partly drawn) [Example 36, 2-[(2R)-3-(3,4-dihydro-1H-isoquinolin-2-yl)-2-hydroxy-propyl]-6-[3-(hydroxymethyl)-1-piperidyl]-3,4-dihydroisoquinolin-1-one]
Second: O=C1c2ccc(N3CCCC(O)C3)cc2CCN1C[C@H](O)CN1CCc2ccccc2C1 (stereo partly drawn) [Example 38, 2-[(2R)-3-(3,4-dihydro-1H-isoquinolin-2-yl)-2-hydroxy-propyl]-6-(3-hydroxy-1-piperidyl)-3,4-dihydroisoquinolin-1-one]
The IC50 of the first is lower: 0.001 to 0.1 µM for the first, 0.1 to 1 µM for the second. The first is the more potent here.

Compared with `O=C1c2ccc(N3CCOC3)cc2CCN1C[C@H](O)CN1CCc2ccccc2C1` [Example 39, 2-[(2R)-3-(3,4-dihydro-1H-isoquinolin-2-yl)-2-hydroxy-propyl]-6-oxazolidin-3-yl-3,4-dihydroisoquinolin-1-one], `C[C@H]1CN(c2ccc3c(c2)CCN(C[C@H](O)CN2CCc4ccccc4C2)C3=O)CCO1` [Example 47, 2-[(2R)-3-(3,4-dihydro-1H-isoquinolin-2-yl)-2-hydroxy-propyl]-6-[(2S)-2-methylmorpholin-4-yl]-3,4-dihydroisoquinolin-1-one] is lower in IC50: 0.1 to 1 µM for the first, 0.001 to 0.1 µM for the second. The second is the more potent here.

First: CC1COCCN1c1ccc2c(c1)CCN(C[C@H](O)CN1CCc3ccccc3C1)C2=O (stereo partly drawn) [Example 40, 2-[(2R)-3-(3,4-dihydro-1H-isoquinolin-2-yl)-2-hydroxy-propyl]-6-(3-methylmorpholin-4-yl)-3,4-dihydroisoquinolin-1-one]
Second: O=C1c2ccc(N3CCOC3=O)cc2CCN1C[C@H](O)CN1CCc2ccccc2C1 [Example 45, 3-[2-[(2R)-3-(3,4-dihydro-1H-isoquinolin-2-yl)-2-hydroxy-propyl]-1-oxo-3,4-dihydroisoquinolin-6-yl]oxazolidin-2-one]
The IC50 of the first is higher: 1 to 10 µM for the first, 0.1 to 1 µM for the second.

Compared with `O=C(CO)Nc1ccc2c(c1)CCN(C[C@H](O)CN1CCc3ccccc3C1)C2=O` [Example 41, N-[2-[(2R)-3-(3,4-dihydro-1H-isoquinolin-2-yl)-2-hydroxy-propyl]-1-oxo-3,4-dihydroisoquinolin-6-yl]-2-hydroxy-acetamide], `CC(=O)Nc1ccc2c(c1)CCN(C[C@H](O)CN1CCc3ccccc3C1)C2=O` [Example 42, N-[2-[(2R)-3-(3,4-dihydro-1H-isoquinolin-2-yl)-2-hydroxy-propyl]-1-oxo-3,4-dihydroisoquinolin-6-yl]acetamide] is higher in IC50: 0.001 to 0.1 µM for the first, 0.1 to 1 µM for the second.

First: O=C1c2ccc(N3CC4(COC4)C3)cc2CCN1C[C@H](O)CN1CCc2ccccc2C1 [Example 44, 2-[(2R)-3-(3,4-dihydro-1H-isoquinolin-2-yl)-2-hydroxy-propyl]-6-(2-oxa-6-azaspiro[3.3]heptan-6-yl)-3,4-dihydroisoquinolin-1-one]
Second: O=C1c2ccc(N3CC(CO)C3)cc2CCN1C[C@H](O)CN1CCc2ccccc2C1 [Example 46, 2-[(2R)-3-(3,4-dihydro-1H-isoquinolin-2-yl)-2-hydroxy-propyl]-6-[3-(hydroxymethyl)azetidin-1-yl]-3,4-dihydroisoquinolin-1-one]
The IC50 of the first is lower: 0.001 to 0.1 µM for the first, 0.1 to 1 µM for the second. The first is the more potent here.

`COC1CCN(c2ccc3c(c2)CCN(C[C@H](O)CN2CCc4ccccc4C2)C3=O)CC1` [Example 48, 2-[(2R)-3-(3,4-dihydro-1H-isoquinolin-2-yl)-2-hydroxy-propyl]-6-(4-methoxy-1-piperidyl)-3,4-dihydroisoquinolin-1-one] and `O=C1c2ccc(N3CCS(=O)(=O)CC3)cc2CCN1C[C@H](O)CN1CCc2ccccc2C1` [Example 49, 2-[(2R)-3-(3,4-dihydro-1H-isoquinolin-2-yl)-2-hydroxy-propyl]-6-(1,1-dioxo-1,4-thiazinan-4-yl)-3,4-dihydroisoquinolin-1-one] fall in the same range of IC50: 0.001 to 0.1 µM for the first, 0.001 to 0.1 µM for the second.

`O=C1c2ccc(NC3CCOC3)cc2CCN1C[C@H](O)CN1CCc2ccccc2C1` (stereo partly drawn) [Example 50, 2-[(2R)-3-(3,4-dihydro-1H-isoquinolin-2-yl)-2-hydroxy-propyl]-6-(tetrahydrofuran-3-ylamino)-3,4-dihydroisoquinolin-1-one] and `O=C1c2ccc(NC3COC3)cc2CCN1C[C@H](O)CN1CCc2ccccc2C1` [Example 51, 2-[(2R)-3-(3,4-dihydro-1H-isoquinolin-2-yl)-2-hydroxy-propyl]-6-(oxetan-3-ylamino)-3,4-dihydroisoquinolin-1-one] fall in the same range of IC50: 0.1 to 1 µM for the first, 0.1 to 1 µM for the second.

`CC(C)(C)OC(=O)N1CCN(c2ccc3c(c2)CCN(C[C@H](O)CN2CCc4ccccc4C2)C3=O)CC1` [Example 53, tert-butyl 4-[2-[(2R)-3-(3,4-dihydro-1H-isoquinolin-2-yl)-2-hydroxy-propyl]-1-oxo-3,4-dihydroisoquinolin-6-yl]piperazine-1-carboxylate] and `O=C1c2ccc(CN3CCCOCC3)cc2CCN1C[C@H](O)CN1CCc2ccccc2C1` [Example 54, 2-[(2R)-3-(3,4-dihydro-1H-isoquinolin-2-yl)-2-hydroxy-propyl]-6-(1,4-oxazepan-4-ylmethyl)-3,4-dihydroisoquinolin-1-one] fall in the same range of IC50: 0.001 to 0.1 µM for the first, 0.001 to 0.1 µM for the second.
